Assay results published in patent EP0120270A2, “Furyloxazolylacetic acid derivative, processes for preparing same and pharmaceutical composition” (Tanabe Seiyaku Co., Ltd., priority 1983, dated 1984).

Experiments:
male SD rats = assay: Hypolipidemic activity (serum cholesterol and serum triglyceride in rats fed diet containing test compound); type: in vivo; conditions: test compound 50 mg % in diet, ad libitum for one week, group of 5
Protocol: A test compound (50 mg %) was added to a commercial diet, and male SD rats (body weight: 120 - 140 g, a group of 5 rats) were fed with the diet ad libitum for one week. After the experimental period, blood was collected from the tail vein of the rats under ether anesthesia. Then, serum cholesterol and serum triglyceride were measured according to the methods of Zak (Amr. J. Clin, Pathol., Vol. 24, page 1307 (1954)) and Van Handel-Silversmit (J. Lab. & Clin. Med., Vol. 50, page 152 (1957)), respectively. Based on the results obtained above, the decrease (%) in serum cholesterol or triglyceride were calculated by the following formula: [formula]

platelet aggregation = assay: Platelet aggregation-inhibiting activity (collagen-induced aggregation in platelet-rich plasma); type: cell-based, rats; conditions: final concentration: 100 µg/ml, rat PRP, 37°C
Protocol: Blood was collected from the abdominal aorta of male SD rats (body weight: 250 - 300 g) which were anesthetized with ether. Nine volumes of said blood were mixed with one volume of an aqueous 3.8 % (w/v) trisodium citrate solution, and the mixture was centrifuged at 500 x g for 5 minutes to give platelet-rich plasma (hereinafter referred to as "PRP") as the supernatant solution. The bottom layer was further centrifuged at 1000 x g for 10 minutes to give platelet-poor plasma (hereinafter referred to as "PPP") as the supernatant solution. PRP was diluted with PPP so that the blood platelet count was 8 - 10 x 10 /mm . Then, a mixture of 200 µl of said diluted PRP and 25 µl of a test compound solution (final concentration: 100 µg/ml) was introduced into a glass cell of SIENCO aggregometer (Sienco Inc., Morrison, Colo. Model DP-247-D). After the mixture was stirred at 1100 rpm at 37°C for 2 minutes, 25 µl of a collagen solution (prepared by Holmsen's method described in Biochim. Biophys. Acta, Vol. 186, page 254(1969)) was added thereto, and the percentage inhibition of platelet aggregation was calculated in accordance with the following formula from the degree of the platelet aggregation which was estimated by Born's method (Nature, 194, page 927[…]). [formula]

Row | Compound | Decrease (%) in serum choles-terol (male SD rats) [%] | Decrease (%) in serum trigly-ceride (male SD rats) [%] | inhibition at 100 µg/mL (platelet aggregation) [%]
1 | CC(C)(C(=O)O)c1nc(-c2ccc(Cl)cc2)oc1-c1ccco1 [2-[2-(4-chlorophenyl)-5-(2-furyl)-4-oxazolyl]-2-methylpropionic acid] | 16 | 54 | –
2 | CC(C(=O)O)c1nc(-c2ccc(Cl)cc2)oc1-c1ccco1 (stereo not shown) [2-[2-(4-chlorophenyl)-5-(2-furyl)-4-oxazolyl]-propionic acid] | 14 | 34 | –
3 | CCOC(=O)C(C)(C)Oc1ccc(Cl)cc1 [Clofibrate, 2-(4-chlorophenoxy)-2-methylpropanoic acid ethyl ester, reference compound] | 15 | 16 | < 10
4 | CCOC(=O)C(C)c1nc(-c2ccc(Cl)cc2)oc1-c1ccco1 (stereo not shown) [Ethyl 2-[2-(4-chlorophenyl)-5-(2-furyl)-4-oxazolyl]-propionate] | 15 | 22 | ≥ 10
5 | CCOC(=O)C(C)c1nc(-c2ccc(Cl)cc2)oc1-c1ccoc1 (stereo not shown) [Ethyl 2-[2-(4-chlorophenyl)-5-(3-furyl)-4-oxazolyl]-propionate] | 22 | 45 | ≥ 10
